Assays:
[1] = tested on: MDA-MB-468 xenografts; assay: Mouse xenograft model, compounds injected separately; assay type: in vivo; settings: 20 mg/kg/day IP; for inhibitory effects on MDA-MB-468 xenografts (tumor volume): after 30 days of drug delivery, vs vehicle; for tolerability (body weight): over the course of the experiments
Experimental: All animal experiments were performed in compliance with guidelines of the Animal Welfare Act and the guide for the care and use of laboratory animals following protocols approved by the Institutional Animals Care and Use Committee (IACUC). […] The tumor volumes were measured every two days and calculated by using the following formula width^2 (mm)×length (mm)×0.5.

[2] = tested on: PHGDH-insensitive breast cancer cells MCF-7; assay: MTT cell viability assay, MCF-7; assay type: cell-based; settings: Homo sapiens, MCF7, 72 h
Description: (§1) The biological activities of the compounds at the cellular level were investigated. A series of cancer cells and normal mammary epithelial cells were selected, and the experimental method of MTT (3-(4,5)-dimethylthiahiazo (-z-y 1)-3,5-di-phenytetrazoliumromide) was used.
(§2) The specific method: firstly, PHGDH-sensitive breast cancer cells MDA-MB-468 (5,000 cells/well) and HCC70 (5,000 cells/well), PHGDH-insensitive breast cancer cells MCF-7 (3,000 cells/well), MDA-MB-231 (2,000 cells/well) and ZR-75-1 (4,000 cells/well), colon cancer cell DLD-1 (2,000 cells/well) and normal breast epithelial cells MCF-10A (3,000 cells/well) in the exponential growth were plated into 96-well culture plates and treated in triplicate with or without various concentrations of activated compounds from the enzymatic bioassays. They adhered to the wall over night. The compounds were added from stock solutions in DMSO and the final concentration of DMSO in the medium was 0.2%. After 72 h, 20 μL 5 mg/ml MTT was added to each well and incubated for at least 4 h. […] The number of viable cells was assessed by spectrophotometry at 570 nm, and calculated as the percentage of absorbance of treated cells relative to that of solvent controls. Results were expressed as a percentage of viable cells and the EC50 was calculated by using the Hill equation.

[3] = tested on: PHGDH-insensitive breast cancer cells MDA-MB-231; assay: MTT cell viability assay, MDA-MB-231; assay type: cell-based; settings: Homo sapiens, 72 h
Description: as §1, §2

[4] = molecular target: recombinant PHGDH (Homo sapiens (Human), UniProt O43175); assay: In vitro enzymatic activity of PHGDH by fluorescence kinetic method; assay type: biochemical; settings: recombinant PHGDH 30 ng/μL, NADH fluorescence at 456 nm
recombinant PHGDH, sequence (O43175 whole entry): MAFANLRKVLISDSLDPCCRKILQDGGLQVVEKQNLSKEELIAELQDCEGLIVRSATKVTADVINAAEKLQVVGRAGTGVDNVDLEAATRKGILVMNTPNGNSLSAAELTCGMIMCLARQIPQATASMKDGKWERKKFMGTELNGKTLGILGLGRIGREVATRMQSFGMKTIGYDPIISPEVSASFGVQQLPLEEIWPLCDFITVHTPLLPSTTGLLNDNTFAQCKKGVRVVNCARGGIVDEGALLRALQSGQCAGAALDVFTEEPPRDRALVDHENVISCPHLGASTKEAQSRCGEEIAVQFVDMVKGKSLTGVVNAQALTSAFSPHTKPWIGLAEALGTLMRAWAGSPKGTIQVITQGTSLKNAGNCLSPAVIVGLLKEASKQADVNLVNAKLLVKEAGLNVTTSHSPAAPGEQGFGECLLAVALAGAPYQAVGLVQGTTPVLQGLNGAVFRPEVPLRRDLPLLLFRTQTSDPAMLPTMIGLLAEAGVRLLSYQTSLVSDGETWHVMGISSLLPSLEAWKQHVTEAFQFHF
Experimental: The activity of recombinant PHGDH was measured by monitoring the reduced nicotinamideadenine dinucleotide (NADH) to nicotinamideadenine dinucleotide (NAD^+) change in fluorescence emission at 456 nm. PHGDH (final concentration of 30 ng/μL) was first pre-incubated with enzyme samples in the assay buffer (25 mM HEPES, pH 7.1, 400 mM KCl, 5 μM phosphopyridoxa (PLP), 0.5 mM α-ketoglutarate, 150 μM NADH, PSAT1) for 10 min in 96-well plate, then 10 μL of DMSO (control) or a small molecule of DMSO solution was added, shaken at 550 rpm for 5 minutes at 25° C. and balanced for 5 minutes. […] The reaction was started by adding L-phospho-O-serine (Pser) solution. The UV-visible microplate reader was used to monitor the change of NADH consumption at 456 nm with time. Protein activity was assessed by using an initial rate of reaction within 30 s, at which time NADH consumption was linear over time. The enzymatic inhibition ability of sixty-three compounds was first measured at 50 μM, compounds with percentage inhibition of PHGDH larger than 50% were selected for further studies, and IC50 values were obtained (Table 3).

[5] = tested on: MDA-MB-468 Cells; assay: Cell cycle analysis by PI staining and flow cytometry; assay type: cell-based; settings: MDA-MB-468, 24 h, various concentrations
Experimental: MDA-MB-468 Cells (300,000 cells/well) in exponential growth were plated into 6-well culture plates and then treated in triplicate with or without various concentrations of PKUMDL-WL-2101. After 24 h, cells were harvested by trypsinization and centrifuged, and then fixed in 70% ice-cold ethanol, washed twice with 1×PBS, and kept at 4° C. overnight. The fixed cells were afterwards washed in 1×PBS and resuspended in 1×PBS containing 0.5% triton-x-100, 50 μg/ml Prodiumiodide (PI) and 50 μg/ml DNase-free RNase. The cell suspension was incubated in the dark for 30 min at 37° C. and analyzed by using a BD FACSCanto™ cytometer.

[6] = tested on: PHGDH-sensitive breast cancer cells MDA-MB-468; assay: MTT cell viability assay, MDA-MB-468; assay type: cell-based; settings: Homo sapiens, 72 h
Description: as §1, §2

[7] = tested on: PHGDH-insensitive breast cancer cells ZR-75-1; assay: MTT cell viability assay, ZR-75-1; assay type: cell-based; settings: Homo sapiens, 72 h
Description: as §1, §2

[8] = tested on: PHGDH-sensitive breast cancer cells HCC70; assay: MTT cell viability assay, HCC70; assay type: cell-based; settings: Homo sapiens, 72 h
Description: as §1, §2

[9] = tested on: colon cancer cell DLD-1; assay: MTT cell viability assay, DLD-1; assay type: cell-based; settings: Homo sapiens, 72 h, colon cancer cells
Description: as §1, §2

[10] = tested on: normal breast epithelial cells MCF-10A; assay: MTT cell viability assay, MCF-10A; assay type: cell-based; settings: Homo sapiens, 72 h
Description: as §1, §2

Q: How did the “inhibitory effects on MDA-MB-468 xenografts (tumor volume)” value [1] turn out when `CCNC(=S)N/N=C\c1ccc(-c2ccc(C(=O)O)c(Cl)c2)o1` [PKUMDL-WL-2201, (Z)-2-chloro-4-(5-((2-(ethylcarbamothioyl) hydrazono)methyl)furan-2-yl) benzoic acid] was run?
A: substantial inhibitory effects

Q: And the “tolerability (body weight)” value [1]?
A: maintain normal body weight

Q: And the EC50 [2]?
A: > 200 µM

Q: And the EC50 [3]?
A: > 200 µM

Q: And the IC50 [4]?
A: 35.7 ± 8.6 µM

Q: What about the “effect on cell cycle” value [5] of the same molecule?
A: arrested the cell cycle at the G0/G1-phase in a dose-dependent manner

Q: What about the EC50 [6] of the same molecule?
A: 6.9 µM

Q: What about the EC50 [7] of the same molecule?
A: 125 µM

Q: What about the EC50 [8] of the same molecule?
A: 10 µM

Q: What about the EC50 [9] of the same molecule?
A: 167 µM

Q: What about the EC50 [10] of the same molecule?
A: 64.7 µM

Q: For `COC(=O)c1ccc(-c2ccc(/C=N/NC(=S)Nc3ccc([N+](=O)[O-])cc3)o2)cc1` [PKUMDL-WL-2212, (E)-Methyl 4-(5-((2-((4-nitrophenyl)carbamothioyl) hydrazono)methyl)furan-2-yl) benzoate], which IC50 [4] is on record?
A: 29.8 ± 9.4 µM

Q: `NNC(=S)N/N=C/c1ccc(-c2ccc(S(N)(=O)=O)cc2)o1` [PKUMDL-WL-2225, (E)-4-(5-((2-(hydrazinecarbonothioyl) hydrazono)methyl)furan-2-yl) benzenesulfonamide] was tested. Which IC50 [4] did it give?
A: 38.9 ± 1.2 µM

Q: Which results are given for `O=C(N/N=C/c1cc([N+](=O)[O-])ccc1O)c1ccc(O)cc1O` [PKUMDL-WL-2101, (E)-2,4-dihydroxy-N′-(2-hydroxy-5-nitrobenzylidene)benzohydrazide]?
A: inhibitory effects on MDA-MB-468 xenografts (tumor volume) [1]: substantial inhibitory effects; tolerability (body weight) [1]: maintain normal body weight; EC50 [2]: 139 µM; EC50 [3]: 27.7 µM; IC50 [4]: 34.8 ± 3.6 µM; effect on cell cycle [5]: arrested the cell cycle at the G0/G1-phase in a dose-dependent manner; EC50 [6]: 7.7 µM; EC50 [7]: 83.4 µM; EC50 [8]: 10.8 µM; EC50 [9]: 18.3 µM; EC50 [10]: 45.8 µM

Q: Which IC50 [4] does the source give for `CCNC(=S)N/N=C/c1ccc(-c2ccc(C(=O)O)cc2)o1` [PKUMDL-WL-2226, (E)-4-(5-((2-(ethylcarbamothioyl) hydrazono)methyl)furan-2-yl) benzoic acid] here?
A: 35.5 ± 1.1 µM

Q: With `NNC(=S)N/N=C/c1ccc(-c2ccc(C(=O)O)cc2)o1` [PKUMDL-WL-2222, (E)-4-(5-((2-(hydrazinecarbonothioyl) hydrazono)methyl)furan-2-yl) benzoic acid] as the molecule, how does the IC50 [4] read?
A: 16.7 ± 1.6 µM

Q: For `O=C(N/N=C/c1cc([N+](=O)[O-])ccc1O)c1ccc(C(F)(F)F)cc1` [PKUMDL-WL-2128], which IC50 [4] is on record?
A: 36.1 ± 4.2 µM

Q: Which IC50 [4] does the source give for `COC(=O)c1ccc(-c2ccc(/C=N/NC(=S)NN)o2)cc1` [PKUMDL-WL-2220, (E)-Methyl 4-(5-((2-(hydrazinecarbonothioyl) hydrazono)methyl)furan-2-yl) benzoate] here?
A: 8.9 ± 1.8 µM

Q: Which IC50 [4] does the source give for `CCNC(=S)N/N=C/c1ccc(-c2ccc(O)cc2)o1` [PKUMDL-WL-2229, (E)-N-ethyl-2-((5-(4-hydroxyphenyl)furan-2-yl)methylene) hydrazinecarbothioamide] here?
A: 30.3 ± 4.5 µM

Q: For `CCNC(=S)N/N=C/c1ccc(-c2ccc([N+](=O)[O-])cc2)o1` [PKUMDL-WL-2228, (E)-N-ethyl-2-((5-(4-nitrophenyl)furan-2-yl)methylene) hydrazinecarbothioamide], which IC50 [4] is on record?
A: 37 ± 2.8 µM
